Results reported in patent US6969724B2, “Compounds” (SmithKline Beecham-SpA, priority 1998, dated 2005).

melting point	Compound
220 °C (dec.)	Cl.O=C1CC(CN2CCC(c3ccccc3)CC2)CCc2ccccc21 (racemic)
232 to 234 °C	COc1ccccc1C1CCN(CC2CCc3ccccc3C(=O)C2)CC1.Cl (racemic)
216 to 218 °C	Cl.O=C1CC(CN2CCC(c3ccccc3O)CC2)CCc2ccccc21 (racemic)
245 °C	Cc1ccccc1C1CCN(CC2CCc3ccccc3CC2)CC1.Cl
> 250 °C	Cl.c1ccc(C2CCN(CC3CCc4ccccc4CC3)CC2)cc1
220 to 222 °C	CO[C@@H]1C[C@@H](CN2CCC(c3ccccc3)CC2)CCc2ccccc21.Cl (racemic)
180 to 185 °C	Cl.O=C1CC(CN2CCC(c3ccccc3)CC2)CCc2ccc(Cl)cc21 (racemic)
> 250 °C	Cl.c1ccc(C2CCN(C3CCc4ccccc4CC3)CC2)cc1
126 to 128 °C	C=CCO[C@@H]1C[C@H](CN2CCC(c3ccccc3)CC2)CCc2ccccc21.Cl (racemic)
> 240 °C	Cl.c1ccc(C2CCN(CC3Cc4ccccc4C3)CC2)cc1
> 250 °C	Cl.O[C@@H]1C[C@@H](CN2CCC(c3ccccc3)CC2)CCc2ccccc21 (racemic)
239 to 240 °C	C1=CC(CN2CCC(c3ccccc3)CC2)Cc2ccccc21.Cl (racemic)
213 to 215 °C	CO[C@@H]1C[C@H](CN2CCC(c3ccccc3)CC2)CCc2ccccc21.Cl (racemic)
48 to 50 °C	O[C@@H]1C[C@H](CN2CCC(c3ccccc3)CC2)CCc2ccccc21 (racemic) [Example 9, (±)-cis-7-[(4-Phenylpiperidin-1-yl)methyl]-6,7,8,9-tetrahydro-5H-benzocyclohepten-5-ol]
> 250 °C	Cl.c1ccc(C2CCN(C3Cc4ccccc4C3)CC2)cc1
176 to 189 °C	COc1cccc2c1C(O)CC(CN1CCC(c3ccccc3)CC1)CC2.Cl (racemic)
> 250 °C	C1=CC(CN2CCC(c3ccccc3)CC2)CCc2ccccc21.Cl (racemic)
185 to 188 °C	COc1ccc2c(c1)C(=O)CC(CN1CCC(c3ccccc3)CC1)CC2.Cl (racemic)

The remaining lines, values behind:

Compound	melting point
Cl.OC1CC(CN2CCC(c3ccccc3)CC2)CCc2c(F)cccc21 (racemic)	218 to 220 °C
Cl.O[C@@H]1C[C@H](CN2CCC(c3cccc(Br)c3)CC2)CCc2ccccc21 (racemic)	> 250 °C
Cl.O[C@@H]1C[C@H](CN2CCC(c3cccc(F)c3)CC2)CCc2ccccc21 (racemic)	238 to 240 °C
Cl.Oc1ccccc1C1CCN(CC2CCc3ccccc3C(O)C2)CC1 (racemic)	158 to 160 °C
COc1cccc2c1CCC(CN1CCC(c3ccccc3)CC1)CC2=O.Cl (racemic)	140 to 143 °C
COc1cccc2c1CC[C@@H](CN1CCC(c3ccccc3)CC1)C[C@H]2O.Cl (racemic)	229 to 231 °C
COc1ccc2c(c1)C(O)CC(CN1CCC(c3ccccc3)CC1)CC2 (racemic) [Example 11, (±)-3-Methoxy-7-[(4-phenylpiperidin-1-yl)methyl]-6,7,8,9-tetrahydro-5H-benzocyclohepten-5-ol]	45 to 48 °C
Cc1cccc2c1CC[C@@H](CN1CCC(c3ccccc3)CC1)C[C@H]2O (racemic) [Example 27, (±)-cis-1-methyl-7-[(4-phenylpiperidin-1-yl)methyl]-6,7,8,9-tetrahydro-5H-benzocyclohepten-5-ol]	52 to 55 °C
COc1cccc2c1CCC(CN1CCC(c3ccccc3)CC1)CC2O (racemic) [Example 10, (±)-1-Methoxy-7-[(4-phenylpiperidin-1-yl)methyl]-6,7,8,9-tetrahydro-5H-benzocyclohepten-5-ol]	46 to 48 °C
COc1cc(OC)cc(C2CCN(CC3CCc4ccccc4C(O)C3)CC2)c1.Cl (racemic)	223 to 225 °C
Cl.OC1CC(CN2CCC(c3ccccc3Cl)CC2)CCc2ccccc21 (racemic)	239 to 240 °C
Cc1cc(C)c2c(c1)C(=O)CC(CN1CCC(c3ccccc3)CC1)CC2.Cl (racemic)	222 to 225 °C
Cl.O[C@@H]1C[C@H](CN2CCC(c3ccccc3)CC2)CCc2c(Br)cccc21 (racemic)	220 to 224 °C
Cc1cccc2c1CC[C@@H](CN1CCC(c3cccc(F)c3)CC1)C[C@H]2O.Cl (racemic)	241 to 243 °C
Cl.OC1CC(CN2CCC(c3ccccc3)CC2)CCc2c(OCc3ccccc3)cccc21 (racemic)	198 to 202 °C
COc1cccc2c1CC[C@H](CN1CCC(c3ccccc3)CC1)C[C@H]2O.Cl (racemic)	> 250 °C
COc1ccccc1C1CCN(C[C@@H]2CCc3ccccc3[C@H](O)C2)CC1 (racemic) [Example 21, (±)-cis-7-[[4-(2-methoxyphenyl)piperidin-1-yl]methyl]-6,7,8,9-tetrahydro-5H-benzocyclohepten-5-ol]	72 to 74 °C
Cl.Oc1cccc2c1CC[C@@H](CN1CCC(c3ccccc3)CC1)C[C@H]2O (racemic)	190 to 193 °C
Cl.OC1CC(CN2CCC(c3ccc(F)cc3)CC2)CCc2ccccc21 (racemic)	227 to 229 °C
Cc1ccccc1C1CCN(C[C@@H]2CCc3ccccc3[C@H](O)C2)CC1.Cl (racemic)	> 250 °C
Cl.O[C@@H]1C[C@H](CN2CCC(c3ccccc3)CC2)CCc2c(-c3ccccc3)cccc21 (racemic)	245 to 246 °C
Cc1cc(C)c2c(c1)C(O)CC(CN1CCC(c3ccccc3)CC1)CC2 (racemic) [Example 20, (±)-1,3-dimethyl-7-[(4-phenylpiperidin-1-yl)methyl]-6,7,8,9-tetrahydro-5H-benzocyclohepten-5-ol]	52 to 55 °C
Cl.O[C@@H]1C[C@H](CN2CCC(c3ccc(OCc4ccccc4)cc3)CC2)CCc2ccccc21 (racemic)	225 to 228 °C
